EC50 data for 27 compounds are collected here from US20090023704A1, “Novel Compounds 737” (ASTRAZENECA AB, priority 2007, published 2009).

The target in the test is T1, GABAB receptor (GABABR1a/GABABR2 heterodimer) (Homo sapiens, UniProt O75899+Q9UBS5).
T1 construct: expressed in transfected cells
The test can be described thus: [35S]-GTPγS binding assay, potency of PAM (GABA dose-response curves with and without test compound). The test is classed as biochemical. Particulars: potency of the positive allosteric modulator; GABA dose-response in presence of test compound. The source says: GABABR1a and GABABR2 were cloned from human brain cDNA and subcloned into pCI-Neo (Promega) and pALTER-1 (Promega), respectively. A GABABR1a-Gαqi5 fusion protein expression vector was constructed using the pCI-Neo-GABABR1a cDNA plasmid and pLEC1-Gαqi5 (Molecular Devices, CA). In order to make the Gαqi5 pertussis toxin insensitive, Cys356 was mutated to Gly using standard PCR methodology with the primers 5′-[…]-3′ (forward) and 5′-GCGGCCG […]-3′ (reverse). The Gαqi5mut cDNA was ligated into the BamHI and NotI sites of pcDNA3.0 (Invitrogen). The GABAB R1a coding sequence was amplified by PCR from pCI-Neo-GABABR1a using the primers, 5′-[…]-3′ (forward) and 5′-[…]-3′ (reverse) and subcloned into the BamHI site of pcDNA3.0-Gαqi5mut.
For generation of a cell line expressing the GABABR1a/GABABR2 heterodimer, GABABR1a plasmid DNA (4 μg) GABABR2 plasmid DNA (4 μg) and lipofectamine (24 μl) were mixed in 5 ml OptiMEM and incubated for 45 minutes at room temperature. The cells were exposed to the transfection medium for 5 hours, which then was replaced with culture medium. The cells were cultured for an additional 10 days before selection agents (300 μg/ml hygromycin and 400 μg/ml geneticin) were added. Twenty-four days after transfection, single cell sorting into 96-well plates by flow cytometry was performed using a FACS Vantage SE (Becton Dickinson, Palo Alto, Calif.). After expansion, the GABAB receptor functional response was tested using the FLIPR assay described below. The clone with the highest functional response was collected, expanded and then subcloned by single cell sorting. The clonal cell line with the highest peak response in the FLIPR was used in the present study.
For generation of a stable cell line expressing GABABR1a-Gαqi5 fusion protein and GABABR2, GABABR1a-Gαqi5mut plasmid DNA (8 μg) GABABR2 plasmid DNA (8 μg) and lipofectamine (24 μl) were mixed in 5 ml OptiMEM and incubated for 45 minutes at room temperature. The cells were exposed to the transfection medium for 5 hours, which then was replaced with culture medium. After forty-eight hours, the cells were detached and seeded in 6 well plates (2000 cells/well) and grown in culture medium supplemented with geneticin (400 μg/ml) and zeocin (250 μg/ml). After 4 days, cells from single colonies were collected and transferred to a 24-well plate. After 10 days, the cell clones were seeded in T-25 flasks and grown for another 16 days before they were tested for GABAB receptor mediated functional response. […] The clonal cell line that gave the highest peak response in the FLIPR was used in the present study.
[^35S]-GTPγS binding assays were performed at 30° C. for 45 min in membrane buffer (100 mM NaCl, 5 mM MgCl2, 1 mM EDTA, 50 mM HEPES, pH 7.4) containing 0.025 μg/μl of membrane protein (prepared from the cell lines described above) with 0.01% bovine serum albumin (fatty acid free), 10 μM GDP, 10 μM DTT and 0.53 nM [^35S]-GTPγS (Amersham-Pharmacia Biotech) in a final volume of 200 μl. Non-specific binding was determined in the presence of 20 μM GTPγS. The reaction was started by the addition of GABA at concentration between 1 mM and 0.1 nM in the presence or absence of the required concentration of PAM. The reaction was terminated by addition of ice-cold wash buffer (50 mM Tris-HCl, 5 mM MgCl2, 50 mM NaCl, pH 7.4) followed by rapid filtration under vacuum through Printed Filtermat A glass fiber filters (Wallac) (0.05% PEI treated) using a Micro 96 Harvester (Skatron Instruments). The filters were dried for 30 min at 50° C., then a paraffin scintillant pad was melted onto the filters and the bound radioactivity was determined using a 1450 Microbeta Trilux (Wallac) scintillation counter.
GABA dose-response curves in the presence and absence of test compounds were constructed using the 4-parameter logistic equation, y=ymax+((ymin−ymax)/1+(x/C)^D), where C=EC50 and D=slope factor.
A general note: GTPγS is a poorly hydrolysed GTP analogue; its binding reports G protein activation.

T1 sequence (Q9UBS5 15-961 limits assumed): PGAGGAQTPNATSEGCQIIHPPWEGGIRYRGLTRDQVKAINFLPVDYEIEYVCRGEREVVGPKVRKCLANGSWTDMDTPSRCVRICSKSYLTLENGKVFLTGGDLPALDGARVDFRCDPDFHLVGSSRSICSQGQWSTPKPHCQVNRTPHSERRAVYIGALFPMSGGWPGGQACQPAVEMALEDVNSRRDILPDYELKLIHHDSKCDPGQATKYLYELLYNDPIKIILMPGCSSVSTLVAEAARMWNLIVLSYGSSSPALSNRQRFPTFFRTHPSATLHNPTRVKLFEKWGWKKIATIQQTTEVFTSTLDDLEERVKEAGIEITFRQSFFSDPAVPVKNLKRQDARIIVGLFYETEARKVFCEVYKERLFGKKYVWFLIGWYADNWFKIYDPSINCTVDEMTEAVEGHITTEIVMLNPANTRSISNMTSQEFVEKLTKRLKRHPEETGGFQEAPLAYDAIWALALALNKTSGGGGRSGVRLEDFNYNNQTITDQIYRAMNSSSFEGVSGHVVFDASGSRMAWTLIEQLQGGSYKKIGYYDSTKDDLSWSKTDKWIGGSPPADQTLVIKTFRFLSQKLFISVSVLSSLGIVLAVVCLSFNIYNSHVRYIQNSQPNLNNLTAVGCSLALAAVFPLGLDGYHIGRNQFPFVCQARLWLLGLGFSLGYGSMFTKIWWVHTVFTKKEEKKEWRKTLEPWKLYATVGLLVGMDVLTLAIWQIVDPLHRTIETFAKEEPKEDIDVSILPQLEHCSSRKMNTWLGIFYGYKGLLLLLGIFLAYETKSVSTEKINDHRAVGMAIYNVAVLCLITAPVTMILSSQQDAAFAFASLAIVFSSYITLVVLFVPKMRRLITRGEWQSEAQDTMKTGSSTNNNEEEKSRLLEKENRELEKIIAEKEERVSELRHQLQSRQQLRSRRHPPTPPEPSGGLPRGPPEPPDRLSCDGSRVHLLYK
T1 sequence (O75899 42-941): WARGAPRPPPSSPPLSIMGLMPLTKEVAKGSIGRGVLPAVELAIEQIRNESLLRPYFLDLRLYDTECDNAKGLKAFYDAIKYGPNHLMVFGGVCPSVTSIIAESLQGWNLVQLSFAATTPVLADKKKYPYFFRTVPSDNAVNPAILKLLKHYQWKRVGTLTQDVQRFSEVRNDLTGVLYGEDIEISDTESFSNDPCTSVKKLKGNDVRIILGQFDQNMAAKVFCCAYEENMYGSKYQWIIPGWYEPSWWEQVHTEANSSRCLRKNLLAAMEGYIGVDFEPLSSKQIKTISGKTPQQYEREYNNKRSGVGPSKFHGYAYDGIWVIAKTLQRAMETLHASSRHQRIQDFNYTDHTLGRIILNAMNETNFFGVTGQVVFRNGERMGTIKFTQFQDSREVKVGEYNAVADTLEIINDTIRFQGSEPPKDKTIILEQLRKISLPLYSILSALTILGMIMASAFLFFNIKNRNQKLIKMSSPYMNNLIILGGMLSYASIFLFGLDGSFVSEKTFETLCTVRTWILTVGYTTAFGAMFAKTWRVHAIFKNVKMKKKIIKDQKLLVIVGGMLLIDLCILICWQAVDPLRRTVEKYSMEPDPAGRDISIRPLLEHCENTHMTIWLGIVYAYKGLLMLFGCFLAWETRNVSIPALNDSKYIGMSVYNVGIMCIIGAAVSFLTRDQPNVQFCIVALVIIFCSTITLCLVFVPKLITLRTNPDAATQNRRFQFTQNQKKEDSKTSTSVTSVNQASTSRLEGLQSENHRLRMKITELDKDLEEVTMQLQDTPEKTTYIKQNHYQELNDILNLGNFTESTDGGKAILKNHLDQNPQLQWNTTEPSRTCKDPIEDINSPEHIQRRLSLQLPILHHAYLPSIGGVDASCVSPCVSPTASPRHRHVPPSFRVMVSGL

One may read the EC50 as the midpoint of the concentration-response curve. With `CCc1nc2c(c(=O)n(Cc3ccc(Cl)cc3)c(=O)n2CCCS(=O)(=O)C(C)(C)C)n1C` [Example 34, 3-[3-(tert-butylsulfonyl)propyl]-1-(4-chlorobenzyl)-8-ethyl-7-methyl-3,7-dihydro-1H-purine-2,6-dione], the EC50 was found to be 11.3 µM.
The value for `CCc1nc2c(c(=O)n(Cc3ccc(Cl)cc3)c(=O)n2Cc2ccc(OC)cc2OC)n1C` [Example 71, 1-(4-Chlorobenzyl)-3-(2,4-dimethoxybenzyl)-8-ethyl-7-methyl-3,7-dihydro-1H-purine-2,6-dione] was 11.3 µM; that for `CCc1nc2c(c(=O)n(Cc3ccc(Cl)cc3)c(=O)n2CC(=O)OC)n1C` [Example 11, Methyl [1-(4-chlorobenzyl)-8-ethyl-7-methyl-2,6-dioxo-1,2,6,7-tetrahydro-3H-purin-3-yl]acetate] was 8.5 µM; that for `CCCn1c(=O)n(Cc2ccc3nsnc3c2)c(=O)c2c1nc(CC)n2C` [Example 64, 1-(2,1,3-Benzothiadiazol-5-ylmethyl)-8-ethyl-7-methyl-3-propyl-3,7-dihydro-1H-purine-2,6-dione] was 11.1 µM.
With `CCc1nc2c(c(=O)n(Cc3ccc(Cl)cc3)c(=O)n2CC(=O)N2CCC(F)(F)C2)n1C` [Example 50, 1-(4-Chlorobenzyl)-3-[2-(3,3-difluoropyrrolidin-1-yl)-2-oxoethyl]-8-ethyl-7-methyl-3,7-dihydro-1H-purine-2,6-dione] the figure was 10 µM; with `CCCn1c(=O)n(Cc2ccc(Cl)cc2)c(=O)c2c1nc(N(C)C)n2C` [Example 82, 1-(4-chlorobenzyl)-8-(dimethylamino)-7-methyl-3-propyl-3,7-dihydro-1H-purine-2,6-dione], 5.6 µM; with `CCCn1c(=O)n(Cc2ccc(Cl)cc2)c(=O)c2c1nc(N1CCN(C)CC1)n2C` [Example 87, 1-(4-chlorobenzyl)-7-methyl-8-(4-methylpiperazin-1-yl)-3-propyl-3,7-dihydro-1H-purine-2,6-dione], 15.6 µM.
With `CCCn1c(=O)n(Cc2ccc(F)cc2)c(=O)c2c1nc(OC)n2C` [Example 79, 1-(4-Fluorobenzyl)-8-methoxy-7-methyl-3-propyl-3,7-dihydro-1H-purine-2,6-dione] the figure was 14.5 µM.
In the case of `CCc1nc2c(c(=O)n(Cc3ccc(Cl)cc3)c(=O)n2CC(OC)OC)n1C` [Example 52, 1-(4-chlorobenzyl)-3-(2,2-dimethoxyethyl)-8-ethyl-7-methyl-3,7-dihydro-1H-purine-2,6-dione], the EC50 was found to be 8.8 µM.
Turning to `CCCn1c(=O)n(Cc2ccc(Cl)cc2Cl)c(=O)c2c1nc(CC)n2C` [Example 60, 1-(2,4-Dichlorobenzyl)-8-ethyl-7-methyl-3-propyl-3,7-dihydro-1H-purine-2,6-dione], the EC50 was 17.2 µM.
With `CCc1nc2c(c(=O)n(Cc3ccc(Cl)cc3)c(=O)n2CCC(F)(F)F)n1C` [Example 75] the figure was 3.5 µM; with `CCc1nc2c(c(=O)n(Cc3ccc(Cl)cc3)c(=O)n2Cc2ccc(Cl)cc2)n1C` [Example 13, 1,3-Bis(4-chlorobenzyl)-8-ethyl-7-methyl-3,7-dihydro-1H-purine-2,6-dione], 5.2 µM.
With `CCc1nc2c(c(=O)n(Cc3ccc(Cl)cc3)c(=O)n2CC(=O)OC(C)(C)C)n1C` [Example 35, tert-butyl [1-(4-chlorobenzyl)-8-ethyl-7-methyl-2,6-dioxo-1,2,6,7-tetrahydro-3H-purin-3-yl]acetate] the figure was 5.6 µM; with `CCc1nc2c(c(=O)n(Cc3ccc(Cl)cc3)c(=O)n2CCCOc2ccc(C(F)(F)F)cc2)n1C` [Example 36, 1-(4-chlorobenzyl)-8-ethyl-7-methyl-3-{3-[4-(trifluoromethyl)phenoxy]propyl}-3,7-dihydro-1H-purine-2,6-dione], 6.6 µM.
With `CCc1nc2c(c(=O)n(Cc3ccc(Cl)cc3)c(=O)n2Cc2ccc(S(C)(=O)=O)cc2)n1C` [Example 22, 1-(4-chlorobenzyl)-8-ethyl-7-methyl-3-[4-(methylsulfonyl)benzyl]-3,7-dihydro-1H-purine-2,6-dione] the figure was 2.5 µM; with `CCCn1c(=O)n(CCc2ccc(Cl)cc2)c(=O)c2c1nc(CC)n2C` [Example 63, 1-[2-(4-Chlorophenyl)ethyl]-8-ethyl-7-methyl-3-propyl-3,7-dihydro-1H-purine-2,6-dione], 13.8 µM.
As for `CCc1nc2c(c(=O)n(Cc3ccc(Cl)cc3)c(=O)n2CC2CCCCC2)n1C` [Example 20, 1-(4-Chlorobenzyl)-3-(cyclohexylmethyl)-8-ethyl-7-methyl-3,7-dihydro-1H-purine-2,6-dione], the EC50 worked out at 3 µM.
The value for `CCc1nc2c(c(=O)n(Cc3ccc(Cl)cc3)c(=O)n2CC(=O)N(C(C)C)C(C)C)n1C` [Example 51, 2-[1-(4-Chlorobenzyl)-8-ethyl-7-methyl-2,6-dioxo-1,2,6,7-tetrahydro-3H-purin-3-yl]-N,N-diisopropylacetamide] was 11.9 µM; that for `CCCn1c(=O)n(Cc2cnn(-c3ccc(Cl)cc3)c2C(F)(F)F)c(=O)c2c1nc(CC)n2C` [Example 59, 1-{[1-(4-Chlorophenyl)-5-(trifluoromethyl)-1H-pyrazol-4-yl]methyl}-8-ethyl-7-methyl-3-propyl-3,7-dihydro-1H-purine-2,6-dione] was 5.9 µM.
The value for `CCc1nc2c(c(=O)n(Cc3ccc(Cl)cc3)c(=O)n2CCN(CC)CC)n1C` [Example 27, 1-(4-chlorobenzyl)-3-[2-(diethylamino)ethyl]-8-ethyl-7-methyl-3,7-dihydro-1H-purine-2,6-dione] was 15.6 µM; that for `CCc1nc2c(c(=O)n(Cc3ccc(Cl)cc3)c(=O)n2Cc2ccc(C(F)(F)F)cc2)n1C` [Example 31, 1-(4-chlorobenzyl)-8-ethyl-7-methyl-3-[4-(trifluoromethyl)benzyl]-3,7-dihydro-1H-purine-2,6-dione] was 5.5 µM.
Consider `CCc1nc2c(c(=O)n(Cc3ccc(Cl)cc3)c(=O)n2Cc2ccccn2)n1C` [Example 15, 1-(4-Chlorobenzyl)-8-ethyl-7-methyl-3-(pyridin-2-ylmethyl)-3,7-dihydro-1H-purine-2,6-dione], for which the EC50 was found to be 7.8 µM.
With `CCCn1c(=O)n(Cc2ccc(Cl)cc2)c(=O)c2c1nc(N1CCC(OC)CC1)n2C` [Example 84, 1-(4-chlorobenzyl)-8-(4-methoxypiperidin-1-yl)-7-methyl-3-propyl-3,7-dihydro-1H-purine-2,6-dione] the figure was 5.1 µM; with `CCCn1c(=O)n(Cc2ccc(Cl)cc2)c(=O)c2c1nc(C(C)O)n2C` (stereo not drawn) [Example 96, 1-(4-chlorobenzyl)-8-(1-hydroxyethyl)-7-methyl-3-propyl-3,7-dihydro-1H-purine-2,6-dione], 12.2 µM; with `CCc1nc2c(c(=O)n(Cc3ccc(Cl)cc3)c(=O)n2CC(O)C(F)(F)F)n1C` (stereo not drawn) [Example 23, 1-(4-chlorobenzyl)-8-ethyl-7-methyl-3-(3,3,3-trifluoro-2-hydroxypropyl)-3,7-dihydro-1H-purine-2,6-dione], 2.1 µM.
The value for `CCn1c(=O)n(Cc2ccc(Cl)cc2)c(=O)c2c1nc(OC)n2-c1ccc(F)cc1` [Example 77, 1-(4-chlorobenzyl)-3-ethyl-7-(4-fluorophenyl)-8-methoxy-3,7-dihydro-1H-purine-2,6-dione] was 6.64 µM; that for `CCc1nc2c(c(=O)n(Cc3ccc(Cl)cc3)c(=O)n2CCOC)n1C` [Example 32, 1-(4-chlorobenzyl)-8-ethyl-3-(2-methoxyethyl)-7-methyl-3,7-dihydro-1H-purine-2,6-dione] was 7.9 µM.
